From publication PMC6522510 (Nature Communications, 2019)
Where two headings read alike, the source gives them in different places.

Key:
Parameters in all cases: species or system AML cell lines (8); Primary HTS, single concentration about 10 uM, Cell Titer Glo viability; log10 luminescence, per cent inhibition relative to cycloheximide control
Settings in all cases: 72 h, relative to cycloheximide control, log10 luminescence, inhibitor
[1] = test system: ML-2
[2] = test system: U937
[3] = test system: MV4-11
[4] = test system: M07e
[5] = test system: CHRF288-11
[6] = test system: CMK
[7] = test system: MOLM-13
[8] = test system: CMS

Compound	ML-2 %inh [1] [%]	U937 %inh [2] [%]	MV4-11 %inh [3] [%]	M07e %inh [4] [%]	CHRF288-11 %inh [5] [%]	CMK %inh [6] [%]	MOLM-13 %inh [7] [%]	CMS %inh [8] [%]	ML-2 %inh ([1]; ML-2 %inh, 10 µM) [%]	U937 %inh ([2]; U937 %inh, 10 µM) [%]	MV4-11 %inh ([3]; MV4-11 %inh, 10 µM) [%]	M07e %inh ([4]; M07e %inh, 10 µM) [%]	CHRF288-11 %inh ([5]; CHRF288-11 %inh, 10 µM) [%]	CMK %inh ([6]; CMK %inh, 10 µM) [%]	MOLM-13 %inh ([7]; MOLM-13 %inh, 10 µM) [%]	CMS %inh ([8]; CMS %inh, 10 µM) [%]
NS(=O)(=O)c1ccc(-c2cc3ccncc3cc2OCc2ccccc2)cc1 [SJ000573084-1, R12606/136/38]	1.187	0.3678	-2.181	5.451	3.946	-0.9682	2.161	4.611	–	–	–	–	–	–	–	–
CCCNc1cccc(-n2ncc3c(N/N=C/c4ccncc4)ncnc32)c1 [SJ000573085-1, U17680/65/1]	-0.9551	-0.2236	-0.4908	4.312	2.576	0.2304	-1.209	0.7041	–	–	–	–	–	–	–	–
CN1CCC(C(=O)Nc2n[nH]c3nc(-c4ccc(O)cc4)c(Br)cc23)CC1 [SJ000573086-1, RW100084-040A1 | AN100368-077A1]	–	–	–	–	–	–	–	–	63.69	86.11	81.01	88.26	69.8	70.81	112.8	85
CN1CCC(C(=O)Nc2n[nH]c3nc(-c4ccc(O)cc4)c(Br)cc23)CC1 [SJ000573086-2, RW100084-040A1 | AN100368-077A1]	–	–	–	–	–	–	–	–	61.94	85.17	86.37	63.44	68.5	69.83	108.5	94.2
CCC(=O)Nc1ccc(C)c(-c2ccc(C(=O)NCC3CC3)cc2)c1 [SJ000573087-1, R7387/20/4]	-0.3215	1.348	5.047	5.006	3.258	1.803	6.641	2.476	–	–	–	–	–	–	–	–
COc1ccc(-c2ccc3c(NC(=O)C4CC4)n[nH]c3n2)cc1 [SJ000573088-1, BS100048-058B1]	1.731	1.777	-0.1427	-1.122	-3.869	5.626	4.236	-1.884	–	–	–	–	–	–	–	–
CN1CCN(Cc2ccc(-c3cc4ncnc(Nc5ccc(OCc6cccc(F)c6)c(Cl)c5)c4s3)o2)CC1 [SJ000573089-1, U17540/68/2]	-0.8811	9.435	5.617	-2.246	89.11	14.44	4.975	6.304	–	–	–	–	–	–	–	–
COc1cc2ncnc(Nc3ccc(C)c(O)c3)c2cc1OC [SJ000573090-1, U13103/179/1]	-3.545	0.4968	0.6335	-0.2224	0.5463	1.416	7.874	0.3431	–	–	–	–	–	–	–	–
Cc1cc(O)cc(C)c1/C=C/c1cncc(C(=O)OC(C)(C)C)c1 [SJ000573091-1, U11962/36/1]	-0.1273	-1.9	1.728	-1.025	-1.68	2.193	2.429	-1.844	–	–	–	–	–	–	–	–
c1cc(-c2cnn3nc(N4CCOCC4)ccc23)nc(NC2CC2)n1 [SJ000573092-1, U17157/98/7]	1.098	4.896	16.51	1.021	-0.2849	-4.251	12.47	-2.802	–	–	–	–	–	–	–	–
CS(=O)(=O)CCNCc1ccc(-c2ccc3ncnc(Nc4ccc(OCc5ccccc5)cc4)c3c2)o1 [SJ000573093-1, R1325/200/3]	1.913	-1.059	19.4	6.213	1.417	1.449	25.45	0.8735	–	–	–	–	–	–	–	–
COC(=O)Nc1nc2ccc(S(=O)(=O)c3ccc(NC(=O)Nc4cc(C(F)(F)F)ccc4F)cc3)cc2[nH]1 [SJ000573094-1, T229/157/1]	-2.541	1.083	-0.02364	3.593	9.928	2.078	1.464	3.097	–	–	–	–	–	–	–	–
CN(C)c1cc2c(Nc3ccc4nc(Cc5ccccc5)[nH]c4c3)ncnc2cn1 [SJ000573096-1, R142/81/1]	-0.4937	-0.02909	3.394	-6.495	-0.8109	4.629	19.45	0.4943	–	–	–	–	–	–	–	–
Clc1ccc(-c2nn3ncccc3c2-c2ccnc(Nc3ccccc3)n2)cc1 [SJ000573097-1, U17838/189/2]	-2.244	-1.31	3.385	-1.226	6.42	3.667	0.7466	3.744	–	–	–	–	–	–	–	–
Cc1ccc(NC(=O)CC2CC2)cc1-c1ccc(C(=O)NCC2CC2)cc1 [SJ000573098-1, R7387/20/3]	-2.089	1.321	0.255	-0.8105	2.428	4.183	0.2753	1.599	–	–	–	–	–	–	–	–
CN(c1ccc(NC(=O)Nc2c(Cl)cccc2Cl)cc1)c1ccnc(Nc2cccc(CS(C)(=O)=O)c2)n1 [SJ000573099-1, U17983/31/1]	37.92	19.94	78.59	50.22	15.56	37.49	85.25	10.65	–	–	–	–	–	–	–	–
CCc1nn2ncccc2c1-c1ccnc(NC2CC2)n1 [SJ000573100-1, U16767/17/1]	0.1681	0.5788	0.7749	1.664	0.1094	-4.45	5.368	3.597	–	–	–	–	–	–	–	–
COc1cc2ncnc(Nc3ccc4c(cnn4Cc4ccccc4)c3)c2cc1OC [SJ000573101-1, R143/104/1]	-2.157	6.042	12.83	1.834	5.092	0.8373	25.02	32.19	–	–	–	–	–	–	–	–
CCS(=O)(=O)c1ccc(OC)c(Nc2nccc(N(C)c3ccc4c(C)n[nH]c4c3)n2)c1 [SJ000573103-1, U20513/4/2]	-1.801	1.879	5.714	2.221	5.806	6.86	9.892	9.95	–	–	–	–	–	–	–	–
[O-][S+]1CCN(Cc2ccc(-c3ccc4ncnc(Nc5ccc(OCc6ccccc6)c(Cl)c5)c4c3)o2)CC1 [SJ000573105-1, U14859/143/2]	-0.9946	1.842	5.18	-0.2789	0.5474	4.729	4.138	-1.021	–	–	–	–	–	–	–	–
CS(=O)(=O)CCNCc1ccc(-c2ccc3ncnc(Nc4ccc(OCc5cccc(C(F)(F)F)c5)cc4)c3c2)o1 [SJ000573107-1, U14801/49/2]	1.894	-2.16	64.67	-0.9182	2.523	3.779	82.16	0.378	–	–	–	–	–	–	–	–
